Measured values published in patent US20150306096A1, “8'-HYDROXY-DIHYDROERGOTAMINE COMPOUNDS AND COMPOSITIONS” (MAP Pharmaceuticals, Inc., priority 2012, published 2015).

What was measured:
Somatostatin (SST1~SST5) = experiment: GTPγS assay; assay type: biochemical, human; details: Somatostatin receptors
Method: (§1) Additional receptor agonist/agonist activity assessments were performed using the 8′-OH DHE test compound. Table 12 contains a summary of the cell lines (CHO-K1/HEK293 transfected with relevant human receptor) and the assays performed to detect any agonist or antagonist activity.
Reagents used were the following: Assay buffer (20 mM HEPES, pH 7.4; 100 mM NaCl; 10 mg/mL saponin; 30 mM MgCl2); Membranes (recombinant human receptor membrane extracts were thawed on ice and diluted in assay buffer to give […] (10 μgμL) and kept on ice); GDP (diluted in assay buffer to give 30 μM solution (3 μM final concentration); beads (PVT-WGA (Amersham, RPNQ001), diluted in assay buffer at 25 mg/mL (0.25 mg/10 μL)); GTPγ^35S (Perkin Elmer, NEG030X), diluted in assay buffer to give 0.1 nM (final concentration); and ligand (agonist/antagonist diluted in assay buffer).
Membranes were mixed with GDP (1:1) and incubated for at least 15 minutes on ice. In parallel, GTPγ^35S was mixed with the beads (1:1) just before starting the reaction. […] The plates were then centrifuged for 10 minutes at 2,000 rpm and incubated at RT for 1 hour and counted for 1 min/well with a Perkin Elmer TopCount reader.

[1] = test system: Glutamate (mGlu3/mGlu5/mG1u7); experiment: Glutamate receptor aequorin / cAMP assays; assay type: cell-based, human; details: mGlu receptors
Method: Additional receptor agonist/agonist activity assessments were performed using the 8′-OH DHE test compound. Table 12 contains a summary of the cell lines (CHO-K1/HEK293 transfected with relevant human receptor) and the assays performed to detect any agonist or antagonist activity. […]
For agonist testing, 30 μL of cell suspension was mixed with 30 μL of the test 8′-OH DHE compound or reference agonist in a 384-well plate. The resulting emission of light was recorded using the FDSS 6000 luminometer. […] The resulting emission of light was recorded using the FDSS 6000 luminometer.
Cells expressing the human recombinant receptor of interest were grown in media without antibiotic and detached by gentle flushing with PBS-EDTA (5 mM EDTA), recovered by centrifugation and resuspended in assay buffer (KRH: 5 mM KCl, 1.25 mM MgSO4, 124 mM NaCl, 25 mM HEPES, 13.3 mM glucose, 1.25 mM KH2PO4, 1.45 mM CaCl2, 0.5 g/L BSA). […] Lysis buffer was added and after one hour incubation, cAMP concentrations were determined according to the manufacturer specification with the HTRF kit. […] Lysis buffer was added and after 1 hour incubation, cAMP concentrations were determined according to the manufacturer specification, with the HTRF kit. […]

[2] = test system: NMDA (NR1/NR2A/NR2B/NR2C/NR2D); experiment: NMDA receptor Fluo-8 calcium FLIPR assay (agonist/antagonist); assay type: cell-based, human; details: NMDA receptors
Method: as §1
Studies for NMDA receptors (the NR1, NR2A, NR2B, NR2C and NR2D receptors) were conducted to monitor receptor activity of the test 8′-OH DHE compound using the Fluo-8 calcium kit and a Fluorescence Imaging Plate Reader (FLIPR^TETRA™) instrument. The following channels were evaluated: Cloned NMDA receptor (NR1/NR2A) channel (encoded by the GRIN1 and GRIN2A genes, co-expressed in HEK293 cells); Cloned NMDA receptor (NR1/NR2B) channel (encoded by the GRIN1 and GRIN2B genes, co-expressed in HEK293 cells); Cloned NMDA receptor (NR1/NR2C) channel (encoded by the GRIN1 and GRIN2C genes, co-expressed in HEK293 cells); and Cloned NMDA receptor (NR1/NR2D) channel (encoded by the GRIN1 and GRIN2D genes, transiently co-expressed in HEK293 cells).
For the agonist assessment, the effect of the test 8′-OH DHE compound was evaluated in the absence of the positive control agonist. The signal, elicited in the presence of the agonist (100 μM Glutamic acid+20 μM Glycine), was set to 100% activation and the signal in the presence of the vehicle control (Mg^2+-free HB-PS) was set to 0% activation. […]

Measured: Activity (Agonism: EC50; Antagonism: IC50)

CN1C[C@H](C(=O)N[C@]2(C)O[C@@]3(O)[C@@H]4CCC(O)N4C(=O)[C@H](Cc4ccccc4)N3C2=O)C[C@@H]2c3cccc4[nH]cc(c34)C[C@H]21 (stereo partly drawn) [8′-OH DHE, 8′-Hydroxy-Dihydroergotamine]
Inactive: all assays above
